23 molecules from ChEMBL document CHEMBL1125892 (J Med Chem, 1991) can be followed below.

Usually IC50 stands for the concentration at which inhibition is half-maximal. The term ED50 denotes the dose that gives a 50% effect, or the effect in half of the subjects.

Experiment [1] concerns the target T1, D(2) dopamine receptor (Rattus norvegicus, UniProt P61169).
Experiment [2] deals with T2, 5-hydroxytryptamine receptor 2A (Rattus norvegicus, UniProt P14842). As to the kind of experiment: Binding affinity against rat 5-hydroxytryptamine 2 receptor in rat cerebral cortex tissue using [3H]spiperone as radioligand; IA-Inactive. The experiment is classed as tissue-based.
Experiment [3] concerns the target T3, 5-hydroxytryptamine receptor 1A (Rattus norvegicus, UniProt P19327).
T3 sequence (P19327 whole entry): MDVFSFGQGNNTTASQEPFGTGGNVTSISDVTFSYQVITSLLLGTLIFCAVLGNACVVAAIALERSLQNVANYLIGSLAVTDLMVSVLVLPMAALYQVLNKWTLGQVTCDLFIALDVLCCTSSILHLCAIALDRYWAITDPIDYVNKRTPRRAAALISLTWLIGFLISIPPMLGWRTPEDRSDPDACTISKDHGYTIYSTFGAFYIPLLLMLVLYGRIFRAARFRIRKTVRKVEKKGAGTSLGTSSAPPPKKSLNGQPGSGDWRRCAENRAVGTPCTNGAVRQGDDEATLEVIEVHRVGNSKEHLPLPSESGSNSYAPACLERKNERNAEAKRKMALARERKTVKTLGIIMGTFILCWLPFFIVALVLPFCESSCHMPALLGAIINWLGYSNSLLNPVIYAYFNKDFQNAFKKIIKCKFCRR
In words: Binding affinity against 5-hydroxytryptamine 1A receptor of rat hippocampal tissue with [3H]5-HT. The class given is tissue-based, Hippocampus.

The target of experiment [4] is T3, 5-hydroxytryptamine receptor 1A. In words: Displacement of [3H]8-OH-DPAT from rat hippocampal 5-hydroxytryptamine 1A receptor; IA-Inactive. The class given is tissue-based, Hippocampus. For orientation: Displacement assays read how much labelled ligand stays bound in the presence of the test substance.
For experiment [5] the target is unchanged. As to the kind of experiment: Binding affinity against 5-hydroxytryptamine 1A receptor using in rat hippocampal tissue using [3H]8-OH-DPAT as radioligand. The class given is tissue-based, Hippocampus.
The target of experiment [6] is T4, Adrenergic receptor alpha-1 (Rattus norvegicus, UniProt P15823+P23944+P43140).
T4 sequence (P15823 whole entry): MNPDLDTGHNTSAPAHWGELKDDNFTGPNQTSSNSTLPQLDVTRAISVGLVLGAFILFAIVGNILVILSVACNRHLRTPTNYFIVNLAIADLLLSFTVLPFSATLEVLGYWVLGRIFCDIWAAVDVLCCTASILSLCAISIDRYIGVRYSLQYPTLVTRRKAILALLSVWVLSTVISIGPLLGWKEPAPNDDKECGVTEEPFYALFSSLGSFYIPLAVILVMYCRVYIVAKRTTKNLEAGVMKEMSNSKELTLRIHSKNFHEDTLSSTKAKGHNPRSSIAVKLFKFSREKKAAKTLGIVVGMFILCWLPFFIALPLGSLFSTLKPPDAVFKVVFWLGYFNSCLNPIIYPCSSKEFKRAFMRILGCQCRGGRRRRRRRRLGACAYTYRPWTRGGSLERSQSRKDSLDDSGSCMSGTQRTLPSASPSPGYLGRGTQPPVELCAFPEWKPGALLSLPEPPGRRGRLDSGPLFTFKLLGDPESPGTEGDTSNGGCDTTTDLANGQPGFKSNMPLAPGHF
T4 sequence (P23944 whole entry): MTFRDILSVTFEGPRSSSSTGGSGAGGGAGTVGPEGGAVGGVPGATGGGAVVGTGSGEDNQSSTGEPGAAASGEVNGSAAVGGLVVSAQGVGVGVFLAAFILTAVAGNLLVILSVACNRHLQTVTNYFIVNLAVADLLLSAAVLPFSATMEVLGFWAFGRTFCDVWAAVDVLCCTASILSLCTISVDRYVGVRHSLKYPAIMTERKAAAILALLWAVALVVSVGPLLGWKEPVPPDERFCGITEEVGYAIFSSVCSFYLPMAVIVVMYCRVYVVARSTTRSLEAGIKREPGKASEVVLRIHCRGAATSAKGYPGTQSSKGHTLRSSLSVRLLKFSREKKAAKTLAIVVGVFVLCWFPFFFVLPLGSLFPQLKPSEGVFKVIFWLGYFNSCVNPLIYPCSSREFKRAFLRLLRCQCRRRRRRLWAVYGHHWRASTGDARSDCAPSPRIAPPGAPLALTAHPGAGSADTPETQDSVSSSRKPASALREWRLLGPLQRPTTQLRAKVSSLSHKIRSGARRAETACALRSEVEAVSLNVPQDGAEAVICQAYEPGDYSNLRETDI
T4 sequence (P43140 whole entry): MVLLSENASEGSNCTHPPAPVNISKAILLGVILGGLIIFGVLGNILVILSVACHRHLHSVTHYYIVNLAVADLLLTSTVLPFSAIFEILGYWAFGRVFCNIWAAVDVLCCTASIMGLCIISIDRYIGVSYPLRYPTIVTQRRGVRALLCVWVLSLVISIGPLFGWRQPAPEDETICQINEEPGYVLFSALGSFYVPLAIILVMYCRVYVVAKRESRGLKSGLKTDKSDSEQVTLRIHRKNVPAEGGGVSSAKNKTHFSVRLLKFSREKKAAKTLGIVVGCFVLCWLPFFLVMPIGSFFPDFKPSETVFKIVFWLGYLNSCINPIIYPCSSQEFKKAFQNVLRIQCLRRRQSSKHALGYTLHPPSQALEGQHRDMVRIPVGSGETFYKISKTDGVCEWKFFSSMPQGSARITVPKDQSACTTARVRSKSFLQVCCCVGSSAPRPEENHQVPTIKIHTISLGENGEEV
In words: Binding affinity against alpha-1 adrenergic receptor in rat cerebral cortex tissue using [3H]WB-4101 as radioligand. The experiment is classed as tissue-based.

Experiment [7] has as its target T1, D(2) dopamine receptor. As to the kind of experiment: Binding affinity against dopamine receptor D2 in rat corpus striatal tissue using [3H]spiperone as radioligand. The class given is tissue-based, Striatum.
The species entered for experiment [8] is Rattus norvegicus. As to the kind of experiment: Selectivity ratio of IC50 for dopamine receptor and Alpha-1 receptor.
Experiment [9] concerns Rattus norvegicus. As to the kind of experiment: In vivo inhibition of conditional avoidance response in rats(CAR), after sc administration. The experiment is classed as functional.
Experiment [10] relates to Rattus norvegicus. As to the kind of experiment: In vivo inhibition of conditional avoidance response in rats(CAR), after po administration. The experiment is classed as functional.
Experiment [11] deals with Rattus norvegicus. As to the kind of experiment: In vivo inhibition of conditional avoidance response in rats(CAR), after im administration. The experiment is classed as functional.
In experiment [12] the target is T2, 5-hydroxytryptamine receptor 2A. In words: Binding affinity against rat 5-hydroxytryptamine 2 receptor in rat cerebral cortex tissue using [3H]spiperone as radioligand. The experiment is classed as tissue-based.
In experiment [13] the target is T1, D(2) dopamine receptor. As to the kind of experiment: Binding affinity against Dopamine receptor D2 receptor of rat corpus striatal tissue with [3H]spiperone.

T1 sequence (P61169 whole entry): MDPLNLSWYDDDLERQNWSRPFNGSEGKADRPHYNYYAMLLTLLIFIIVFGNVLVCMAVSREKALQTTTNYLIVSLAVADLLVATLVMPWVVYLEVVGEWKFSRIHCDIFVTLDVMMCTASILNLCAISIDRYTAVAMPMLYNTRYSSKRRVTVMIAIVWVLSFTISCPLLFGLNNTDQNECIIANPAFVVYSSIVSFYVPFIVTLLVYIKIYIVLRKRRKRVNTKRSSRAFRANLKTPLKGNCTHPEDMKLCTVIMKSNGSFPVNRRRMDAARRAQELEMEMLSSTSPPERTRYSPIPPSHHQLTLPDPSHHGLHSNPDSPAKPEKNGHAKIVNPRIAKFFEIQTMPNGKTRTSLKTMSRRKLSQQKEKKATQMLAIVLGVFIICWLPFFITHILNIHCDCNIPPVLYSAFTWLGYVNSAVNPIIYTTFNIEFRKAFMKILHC
T2 sequence (P14842 whole entry): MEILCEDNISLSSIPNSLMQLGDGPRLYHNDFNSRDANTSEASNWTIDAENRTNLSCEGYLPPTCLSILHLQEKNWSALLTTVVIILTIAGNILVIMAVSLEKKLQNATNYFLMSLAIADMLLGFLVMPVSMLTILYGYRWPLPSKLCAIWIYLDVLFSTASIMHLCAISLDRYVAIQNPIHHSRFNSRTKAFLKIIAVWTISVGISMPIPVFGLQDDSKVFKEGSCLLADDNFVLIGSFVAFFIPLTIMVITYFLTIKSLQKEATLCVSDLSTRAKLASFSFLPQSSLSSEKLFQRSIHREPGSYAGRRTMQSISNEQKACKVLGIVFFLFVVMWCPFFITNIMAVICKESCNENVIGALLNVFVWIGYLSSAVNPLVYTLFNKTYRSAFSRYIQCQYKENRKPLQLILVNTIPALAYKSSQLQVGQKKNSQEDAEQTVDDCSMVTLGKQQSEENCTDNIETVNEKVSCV

On to `COc1ccc2snc(N3CCNCC3)c2c1`, for which the IC50 result was “Not Active” against D(2) dopamine receptor [1], “Not Active” in experiment [2] and 20.9 nM in experiment [3].

For `COc1ccc2c(N3CCNCC3)nsc2c1`, the IC50 entry (on D(2) dopamine receptor [1]; in experiment [4]; in experiment [2]) was “Not Active” in each case.

For `O=C1CC2(CCCC2)CC(=O)N1CCC(O)CN1CCN(c2nsc3ccccc23)CC1` (stereo not drawn), the values for the IC50 (in [5]; in [6]; on D(2) dopamine receptor [7]) were 24.9 nM, 8.3 nM and 111 nM, respectively. The Ratio in the experiment filed under Rattus norvegicus [8] was found to be 13.

Take `O=C1CCC2(C1)CC(=O)N(CCCCN1CCN(c3nsc4ccccc34)CC1)C(=O)C2`: the IC50 was 2.99 nM in experiment [5], 1.3 nM in [6] and 68.3 nM on D(2) dopamine receptor [7]. This molecule also showed an ED50 in the experiment with Rattus norvegicus [9] of more than 60.3 mg/kg. The Ratio in the experiment listed under Rattus norvegicus [8] came out at 52.

As for `O=C1CC2(CCC(O)C2)CC(=O)N1CCCCN1CCN(c2n[s+]([O-])c3ccccc23)CC1` (stereo not drawn), the IC50 entry (against D(2) dopamine receptor [1]; in experiment [4]; in experiment [2]) was “Not Active” in each case. In the experiment with Rattus norvegicus [9], this molecule had an ED50 of more than 100 mg/kg.

Regarding `COc1cccc2snc(N3CCNCC3)c12`, the IC50 entry at D(2) dopamine receptor [1] was “Not Active”; in experiment [2] it was “Not Active”; in experiment [3] it was 121 nM.

Regarding `O=C1CC2(CCCC2)CC(=O)N1CCC(O)CN1CCN(c2n[s+]([O-])c3ccccc23)CC1` (stereo not drawn), the IC50 entry (against D(2) dopamine receptor [1]; in experiment [4]; in [2]) was “Not Active” in each case. In addition, in the experiment with Rattus norvegicus [10], the ED50 is more than 50 mg/kg.

For `O=C1CC2(CCC(O)C2)CC(=O)N1CCC(O)CN1CCN(c2nsc3ccccc23)CC1` (stereo not drawn), the IC50 in experiment [5] worked out at 14.2 nM; in experiment [6] it was 7.15 nM; on D(2) dopamine receptor [7], 491 nM. The Ratio in the experiment listed under Rattus norvegicus [8] was 69.

For `O=C1CC2(CCC(O)C2)CC(=O)N1CCCCN1CCN(c2nsc3ccccc23)CC1` (stereo not drawn), the results for the IC50 (in [5]; in experiment [6]; at D(2) dopamine receptor [7]) were 3.75 nM, 0.876 nM and 52.5 nM, respectively. Also, the Ratio in the experiment listed under Rattus norvegicus [8] was determined as 60.

Take `O=S1(=O)N=C(N2CCNCC2)c2ccccc21` [BENZISOTHIAZOLE-3YL-PIPERAZINE SULFOXIDE]: the IC50 result (at D(2) dopamine receptor [1]; in experiment [4]; in experiment [2]) was “Not Active” each time. The median effective dose (ED50) with Rattus norvegicus [10] was more than 100 mg/kg.

`O=C1CC2(CCCC2)C(O)C(=O)N1CCCCN1CCN(c2nsc3ccccc23)CC1` (stereo not drawn) had a 50% inhibitory concentration (IC50) in experiment [5] of 5.06 nM. The molecule further yielded an ED50 in the experiment with Rattus norvegicus [11] of 1 mg/kg.

Regarding `O=C1CC2(CCCC2)C(C(=O)NCCCCN2CCN(c3nsc4ccccc34)CC2)O1` (stereo not drawn), the IC50 in [5] was found to be 98.7 nM; in experiment [6], 2.5 nM; on D(2) dopamine receptor [7], 150 nM; in [12], 4.5 nM. In addition, the Ratio in the experiment listed under Rattus norvegicus [8] is 60.

`c1ccc2c(N3CCNCC3)nsc2c1` [BENZISOTHIAZOLE-3-YL-PIPERAZINE]: the IC50 result on D(2) dopamine receptor [1] is “Not Active”; in experiment [5] it was 190 nM. The same molecule yielded an ED50 in the experiment on Rattus norvegicus [10] of more than 100 mg/kg.

With `COc1cccc2c(N3CCNCC3)nsc12`, the 50% inhibitory concentration (IC50) result (against D(2) dopamine receptor [1]; in experiment [4]; in [2]) was “Not Active” each time.

Take `O=C1CCC2(C1)CC(=O)N(CCCCN1CCN(c3n[s+]([O-])c4ccccc34)CC1)C(=O)C2` (stereo not drawn): the IC50 result (against D(2) dopamine receptor [1]; in experiment [4]; in experiment [2]) was “Not Active” throughout. The ED50 in the experiment on Rattus norvegicus [9] was more than 100 mg/kg.

As to `O=C1CC2(CCC(O)C2)CC(=O)N1CCCCN1CCN(C2=NS(=O)(=O)c3ccccc32)CC1` (stereo not drawn), the IC50 result (against D(2) dopamine receptor [1]; in [4]; in [2]) was “Not Active” throughout. In the experiment on Rattus norvegicus [9], this molecule had an ED50 of more than 100 mg/kg.

Molecule `O=C1CC2(CCCC2)CC(=O)N1CCCCN1CCN(c2nsc3ccccc23)CC1` [TIOSPIRONE] had an ED50 in the experiment on Rattus norvegicus [11] of 0.35 mg/kg. The molecule further returned a concentration for half-maximal inhibition (IC50) on D(2) dopamine receptor [13] of 8.4 nM.

For the molecule `[O-][s+]1nc(N2CCNCC2)c2ccccc21` (stereo not drawn) [BITP-SULFONE], the IC50 entry (against D(2) dopamine receptor [1]; in experiment [4]; in [2]) was “Not Active” each time. The molecule further showed an ED50 in the experiment on Rattus norvegicus [10] of more than 100 mg/kg.

For the molecule `O=C1CN(C2=NS(=O)(=O)c3ccccc32)CCN1`, the IC50 entry (against D(2) dopamine receptor [1]; in experiment [4]; in [2]) was “Not Active” throughout. This molecule also showed an ED50 in the experiment on Rattus norvegicus [9] of more than 50 mg/kg.

For the molecule `O=C1CC2(CCCC2)C(O)C(=O)N1CCCCN1CCN(c2n[s+]([O-])c3ccccc23)CC1` (stereo not drawn), the IC50 result (against D(2) dopamine receptor [1]; in [4]; in experiment [2]) was “Not Active” in each case.

For the molecule `O=C1CC2(CCCC2)CC(=O)N1CCCCN1CCN(C2=NS(=O)(=O)c3ccccc32)CC1`, the IC50 result (against D(2) dopamine receptor [1]; in experiment [4]; in [2]) was “Not Active” each time. The same molecule came in with an ED50 in the experiment on Rattus norvegicus [11] of more than 10 mg/kg.

In the case of `O=C1CC2(CCCC2)C(O)C(=O)N1CCCCN1CCN(C2=NS(=O)(=O)c3ccccc32)CC1` (stereo not drawn), the half-maximal inhibitory concentration (IC50) entry (against D(2) dopamine receptor [1]; in [4]; in experiment [2]) was “Not Active” throughout.

On to `O=C1CC2(CCCC2)CC(=O)N1CCCCN1CCN(c2n[s+]([O-])c3ccccc23)CC1` (stereo not drawn), for which the IC50 entry (on D(2) dopamine receptor [1]; in experiment [4]; in [2]) was “Not Active” each time. In the experiment with Rattus norvegicus [10], this molecule came in with an ED50 of 11 mg/kg.
